In one data set the test system is AAV2 and AAV8 vector. The data set is described as follows: Vector production in HEK293 cells with chemical inhibitors, DRP by qPCR, serotype not separated. The data set is classed as cell-based, adeno-associated virus. The protocol:
(§1) Inhibitor-containing media was added to wells and transfection mixtures containing either AAV2 (light bars) or AAV8 (dark bars) production plasmids were added dropwise on top, and vector harvested 48 h later (FIG. 8A). […] To examine whether any of these were not directly inhibiting capsid assembly but rather a result of poor transfection efficiency, an upstream but important factor for vector production, the experiment was repeated adding inhibitors 4 h after transfection mixture was added to allow transfection steps to initiate (FIG. 8B).
A general note: Quantitative PCR measures a nucleic acid by following its amplification.

In another data set the test system is AAV2. Description: AAV2 vector production in HEK293 cells with chemical inhibitors, DRP by qPCR. The data set is classed as cell-based, adeno-associated virus. On the procedure: as §1
Data set [1] relates to HEK293 cells. The data set is described as follows: Cell viability by ATP levels (Cell Titer Glo). As to conditions: 48 h. The data set is classed as cell-based. (Cellular ATP, detected with luciferase, serves as a proxy for viable cell number.)
For another data set, the system named is AAV8. The data set is described as follows: AAV8 vector production in HEK293 cells with chemical inhibitors, DRP by qPCR. The data set is classed as cell-based, adeno-associated virus. On the procedure:
as §1

The subject of data set [2] is HEK293 cells. Description: General transfection efficiency by imaging EGFP positive cells. The data set is classed as cell-based. As to conditions: for transfection efficiency / EGFP expression: inhibitor 4 h post transfection.
The test system of data set [3] is HEK293 cells. As to conditions: 270 uM; 48 h.
Method: General transfection efficiency was assessed visually by imaging EGFP positive cells (EGFP is present in the ITR-flanked transgene plasmid), and cell health was assessed visually by brightfield imaging and quantitatively by ATP levels in drug treated wells (light shading, FIG. 8B).
In these experiments, production plasmids were transfected into HEK293 cells and the appropriate inhibitor was serial diluted and added 4 h later at the concentrations indicated along the x-axis. The inhibitor was added at the same concentrations to a parallel plate and ATP levels were quantified by Cell Titer Glo® to assess cell viability after 48 h of incubation. General transfection efficiency (EGFP; present on ITR-flanked transgene plasmid) and cell morphology (Brightfield), at concentrations listed along the x-axis, were assessed by microscopy at 48 h, immediately before vector harvest from the same well.
Another data set concerns VP proteins. As to conditions: cited from earlier work.
The subject of another data set is AAV. As to conditions: cited from earlier work.
The test system of data set [4] is PEI-mediated transfection of plasmid DNA. The settings on record: cited from earlier work.
The mark [5] stands for this setting: inhibitor added 4 h after transfection, harvest 48 h.
Where [6] appears, read: 6.25 μM, inhibitor added 4 h after transfection.
Setting [7] is: inhibitor added immediately before transfection, harvest 48 h.
[8] abbreviates: higher concentrations, particularly 90-270 uM, 4 h post transfection.

Entries after “also recorded” stand apart in the source; their conditions may differ.

These results are taken from patent US12606802B2, “Methods and compositions for improving the assembly of adeno-associated viruses (AAVs)” (priority 2019, dated 2026).

As to `O=C1NC(=NCc2cccs2)S/C1=C\c1ccc2ncccc2c1` [Cdk1 inhibitor IV], the vector titer entry with AAV2 and AAV8 vector (setting [5]) was “did not affect vector titer without concomitant decreases in both cell health and transfection efficiency”. For the same compound, in the data set with AAV2 (setting [6]), the AAV2 production result is reported as “no effect”. Also, the cell viability entry in the data set with HEK293 cells [1] (6.25 μM, added 4 h after transfection) is listed as “without affecting cell viability”. Further, the AAV8 titer result in the data set on AAV8 (setting [6]) is listed as “appreciable decrease”.

Turning to `NS(=O)(=O)OC[C@H]1C[C@@H](Nc2ncncc2C(=O)c2ccn(Cc3cccc(Br)c3)n2)C[C@@H]1O` [ML-792], the “transfection efficiency / EGFP expression” value in the data set with HEK293 cells [2] (48 h) was “dramatic loss”.

Turning to `Cc1ccc2nc(CN(CCN(Cc3nc4ccc(C)cc4[nH]3)Cc3nc4ccc(C)cc4[nH]3)Cc3nc4ccc(C)cc4[nH]3)[nH]c2c1` [NSC348884], the vector titer entry is “not seen” with AAV2 and AAV8 vector (setting [5]); “large effect” with AAV2 and AAV8 vector (setting [7]).

For the compound `NS(=O)(=O)c1ccc(N/N=C2\C(=O)Nc3ccc(Br)cc32)cc1` [Cdk2 inhibitor II], in the data set with HEK293 cells [2] (90-270 uM, 48 h), the “gross transfection efficiency (by EGFP visualization)” value was “without affecting”. For the same compound, in the data set on AAV2 (setting [8]), the AAV2 production result is “dose-dependent effect”. Also, the “cell viability (as assayed by ATP)” value in the data set on HEK293 cells [1] (90-270 uM) is “without affecting cell viability”. Besides, the cell morphology result with HEK293 cells [3] is “affected”. Moreover, the AAV8 production entry in the data set with AAV8 (setting [8]) is given as “dose-dependent effect”. In addition, the “decrease in AAV8 titer” value in the data set with AAV8 (higher concentrations, 4 h post transfection) was roughly 10 fold.

With apoptazole, in the data set with AAV2 and AAV8 vector (setting [5]), the vector titer result is recorded as “strong dose dependent decrease”. For the same compound, the “expression of EGFP” value in the data set on HEK293 cells [2] (300 uM, 48 h) is recorded as “robust expression of EGFP”. Besides, the “transfection efficiency / EGFP expression” value in the data set on HEK293 cells [2] (48 h) is “no apparent loss”. Besides, in the data set with HEK293 cells [1] (300 uM), the “cell death as assayed by ATP abundance” value is reported as “did not show appreciable cell death”. For the same compound, the “vector production (GC per living cell as percentage of DMSO control)” value in the data set with AAV8 (AAV8, lowest level reached, inhibitor 4 h post transfection) was 5%.

`O=[N+]([O-])c1ccc(F)c([N+](=O)[O-])c1` [FDNB]: the “per cell vector production (GC per living cell)” value in the data set on AAV2 and AAV8 vector (4 h post transfection, likely artefact of ATP-based viable cell count) is “increase”.

For `CO/C1=C\C(C)=C\[C@@H](C)[C@@H](O)[C@@H](C)C/C(C)=C/C=C/[C@H](OC)[C@@H]([C@@H](C)[C@@H](O)[C@H](C)[C@@]2(O)C[C@@H](O)[C@H](C)[C@@H](C(C)C)O2)OC1=O` [Bafilomycin A1], the “reduction in vector titer” value with AAV2 and AAV8 vector (added 4 h post transfection at low doses) was determined as 10 fold. Moreover, the vector production result in the data set on AAV2 and AAV8 vector (inhibitor added immediately before transfection, all doses, harvest 48 h) is on record as “abolished vector production to background levels”. For the same compound, the vector titer result with AAV2 and AAV8 vector (setting [7]) was “abolished vector production”. For the same compound, in the data set on HEK293 cells [2] (low doses, added 4 h post transfection), the transfection efficiency entry was “no visibly appreciable effect”. In addition, in the data set on VP proteins, the “VP protein in the absence of AAP” value is “rescue VP protein; also recorded: rescues degradation of some serotype's VP proteins”. For the same compound, in the data set with AAV, the AAV infection result is listed as “blocks AAV infection”. Also, in data set [4], the “PEI-mediated transfection of plasmid DNA” value was “blocks PEI-mediated transfection of plasmid DNA”.
